Residues, ends and D or L forms follow the SMILES beside them.
Experiments:
adipose tissue = test: Effect of globin proteolysate on increase of adipose tissue, mice on 50% fat feed (Test 4); format: in vivo; conditions: 50% fat feed + Clenbuterol 2 ppm
Description: Then, mice were allowed to ingest freely 50% fat feed and then tested for weight of adipose tissue and cell number.

[1] = tested on: cells in the subcutaneous adipose tissue; test: Effect of globin proteolysate on distribution of adipose tissue cells (Test 4); format: in vivo, mice; conditions: 50% fat feed + Clenbuterol 2 ppm
Description: The cell number in adipose tissues shown in Table 7 represent the values including adipocytes, preadipocytes, fibroblasts, blood vessel cells, etc. The cells in the subcutaneous adipose tissue were investigated in detail as sorted into matured adipocytes, immatured adipocytes, and interstitial cells (stroma).
It is clearly noted from Table 8 showing the results of the investigation that particularly the differentiation of fibro-blasts in the group of interstitial cells represented as stromas to preadipocytes was repressed.

[2] = tested on: adipocytes in adipose tissue; test: Effect of synthetic peptides on increase of cell number in murine adipose tissue (Test 3); format: in vivo, mice; conditions: 50% fat meal + 20 ppm peptide
Description: [Test 3] Effect of adipocyte differentiation inhibiting peptide (chemical synthesis product) (in vivo)
The two adipocyte differentiation inhibiting peptides of the invention, Val-Thr-Leu and Val-Tyr-Pro, synthesized by the method shown in Example 5 were tested for effect on increase of adipocytes (in vivo). The test was performed by the same method as in Test 1 using globin proteolysate.

Swiss mouse 3T3-L1 cells = test: Adipocyte differentiation of preadipocytes in vitro, GPDH activity as marker enzyme (Tests 1 and 2); format: cell-based; conditions: for action to inhibit the GPDH activity: treatment before and after the induction of differentiation, depending on the peptide concentration
Description: (1) Treatment before induction of differentiation
Swiss mouse 3T3-L1 cells were inoculated at a density of about 3×10^4 cells/ml to a cell culturing dish. A Dulbecco modified Eagle culture medium (DMEM) containing bovine fetal blood serum incorporated therein at a concentration of 10% was used as the culture medium. The culture was invariably carried out in an ambience of 5% CO2 and 95% of air at 37° C.
After a monolayer of cells was formed, the cell layer surface was washed with a phosphate buffer physiological salt solution (PBS). In the presence of culture media containing the CD and the fraction A respectively at concentration of 0, 2, 4, and 8 mg/ml and at concentration of 0, 20, 40, and 80 μg/ml, the cell layer was cultured. Then, the cell layer surface was washed with PBS and the cell layer was cultured for two days in the presence of a culture medium incorporating therein the differentiation inducing substance (0.25 μM of dexamethasone, […] of a-methyl-3-isobutyl xanthine, and 10 μg/ml insulin).
Subsequently, the cell layer was deprived of the culture medium containing the differentiation-inducing substance. The cell layer surface was washed likewise with PBS and the cell layer was cultured for about one week in the presence of a culture medium incorporating insulin therein at a concentration of 10 μg/ml.
The effect of the fraction A on the adipocyte differentiation was rated by determining the glycerol-3-phosphate dehydrogenase activity (GPDH) by the well-known method as a marker enzyme.
(2) Treatment after induction of differentiation
Swiss mouse 3T3-L1 cells were cultured by the same method as in (1) mentioned above and then tested for GPDH activity, providing that the culture medium containing insulin at a concentration of 10 μg/ml was added to the GD and the fraction A after the removal of the culture medium containing the differentiation inducing substance.
[Test 2] Differentiation inhibiting effect of adipocyte differentiation inhibiting peptide (chemical synthesis product) on preadipocytes (in vitro)
The effects of the chemically synthesized H-Val-Thr-Leu-OH and the H-Val-Tyr-Pro-OH obtained by the same method as in Example 5 on Swiss mouse 3T3-L1 cells in were investigated by the same method as in Example 5. […]

[3] = Peptide 0.2 mg/ml, treatment after induction of differentiation (48 hours)
[4] = Peptide 0.2 mg/ml, treatment before induction of differentiation (48 hours)
[5] = Peptide 0.4 mg/ml, treatment after induction of differentiation (48 hours)
[6] = Peptide 0.4 mg/ml, treatment before induction of differentiation (48 hours)
[7] = Peptide 0.8 mg/ml, treatment after induction of differentiation (48 hours)
[8] = Peptide 0.8 mg/ml, treatment before induction of differentiation (48 hours)

Row | SMILES | Number of adipocytes, Epididymal adipose tissue [2] | Number of adipocytes, Retroperitoneal adipose tissue [2] | Number of adipocytes, Subcutaneous adipose tissue [2] | GDPH activity (Swiss mouse 3T3-L1 cells; [3]) | Ratio of Inhibition (Swiss mouse 3T3-L1 cells; [3]) | GDPH activity (Swiss mouse 3T3-L1 cells; [4]) | Ratio of Inhibition (Swiss mouse 3T3-L1 cells; [4]) | GDPH activity (Swiss mouse 3T3-L1 cells; [5]) | Ratio of Inhibition (Swiss mouse 3T3-L1 cells; [5]) | GDPH activity (Swiss mouse 3T3-L1 cells; [6]) | Ratio of Inhibition (Swiss mouse 3T3-L1 cells; [6]) | GDPH activity (Swiss mouse 3T3-L1 cells; [7]) | Ratio of Inhibition (Swiss mouse 3T3-L1 cells; [7]) | GDPH activity (Swiss mouse 3T3-L1 cells; [8]) | Ratio of Inhibition (Swiss mouse 3T3-L1 cells; [8]) | action to inhibit the GPDH activity (Swiss mouse 3T3-L1 cells) | other results
1 | CC(C)(C)NCC(O)c1cc(Cl)c(N)c(Cl)c1 (centres unmarked) [Clenbuterol] | – | – | – | – | – | – | – | – | – | – | – | – | – | – | – | – | Number of adipocytes, Epididymal adipose tissue (adipose tissue): 79 ± 7 DNA μg/adipose tissue; Number of adipocytes, Retroperitoneal adipose tissue (adipose tissue): 18 ± 2 DNA μg/adipose tissue; Number of adipocytes, Subcutaneous adipose tissue (adipose tissue): 96 ± 8 DNA μg/adipose tissue; weight of adipose tissue, Epididymal adipose tissue (adipose tissue): 0.97 ± .11 g; weight of adipose tissue, Retroperitoneal adipose tissue (adipose tissue): 0.28 ± .04 g; weight of adipose tissue, Subcutaneous adipose tissue (adipose tissue): 1.49 ± .22 g; Adipocyte [1]: 30; Preadipoytes [1]: 30; Stroma [1]: 36
2 | CC(C)C[C@H](NC(=O)[C@@H](NC(=O)[C@@H](N)C(C)C)[C@@H](C)O)C(=O)O [Val-Thr-Leu, H-Val-Thr-Leu-OH] (H-Val-Thr-Leu-OH) | 88 DNA μg/adipose tissue | 23 DNA μg/adipose tissue | 102 DNA μg/adipose tissue | 463.2 ± 29.7 mU/mg protein | 35.5% | 102.5 ± 19.6 mU/mg protein | 82.1% | 281.1 ± 19.6 mU/mg protein | 60.8% | 8.1 ± 1.6 mU/mg protein | 98.6% | 13.8 ± 5.4 mU/mg protein | 98.1% | 6.3 ± 1.9 mU/mg protein | 98.9% | conspicuous action to inhibit the GPDH activity | –
3 | CC(C)[C@H](N)C(=O)N[C@@H](Cc1ccc(O)cc1)C(=O)N1CCC[C@H]1C(=O)O [Val-Tyr-Pro, H-Val-Tyr-Pro-OH] (H-Val-Tyr-Pro-OH) | 102 DNA μg/adipose tissue | 27 DNA μg/adipose tissue | 125 DNA μg/adipose tissue | 412.6 ± 20.3 mU/mg protein | 42.5% | 106.7 ± 28.1 mU/mg protein | 83.0% | 197.3 ± 27.5 mU/mg protein | 72.5% | 10.6 ± 2.3 mU/mg protein | 98.5% | 14.7 ± 2.7 mU/mg protein | 98.0% | 7.8 ± 1.5 mU/mg protein | 98.7% | conspicuous action to inhibit the GPDH activity | –

— patent US5756467A, “Adipocyte differentiation inhibiting peptide and adipocyte differentiation inhibiting agent using the peptide as active component thereof” (Itoham Foods Inc., priority 1993, dated 1998)
